Test results published in patent US7820623B2 (priority 2006, dated 2010).
Read-outs that look alike come from different tables or passages of the source. Bridge positions count the residues as written; N and C are the ends. Square brackets hold non-standard residues; d marks the D form. Peptide text beside a SMILES is read from it. 1Nal = N[C@@H](Cc1cccc2ccccc12)C(=O)O

How the values were obtained:
[1] = tested on: thapsigargin-induced IL-2 production in human whole blood
[2] = tested on: thapsigargin-induced IFN-g production in human whole blood; type: cell-based
[3] = read-out: Analogue Activity (IC50) WB/IL-2
[4] = read-out: Analogue Activity (IC50) WB/IFNg

CC[C@H](C)[C@@H]1NC(=O)[C@H](Cc2cccc3ccccc23)NC(=O)[C@@H](NC(=O)[C@H](CCCCN)NC(=O)[C@@H](NC(=O)[C@H](CC(N)=O)NC(=O)[C@@H](NC(=O)[C@@H](NC(=O)[C@@H](NC(=O)CN)C(C)C)[C@@H](C)CC)[C@@H](C)CC)C(C)C)CSSC[C@@H]2NC(=O)[C@H](CCCCN)NC(=O)CNC(=O)[C@H](Cc3ccccc3)NC(=O)[C@H](CCCNC(=N)N)NC(=O)[C@H](CCSC)NC(=O)CNC(=O)[C@H](C)NC(=O)[C@H](CCCCN)NC(=O)[C@H](CCCCN)NC(=O)[C@@H]3CSSC[C@@H](C(=O)N[C@H](C(=O)N4CCC[C@H]4C(=O)N[C@@H](CCCCN)C(=O)O)[C@@H](C)O)NC(=O)[C@H](Cc4c[nH]cn4)NC(=O)[C@H](CSSC[C@H](NC(=O)[C@H](CCC(N)=O)NC(=O)[C@H](CCCNC(=N)N)NC(=O)[C@H](CO)NC1=O)C(=O)N[C@@H](CC(C)C)C(=O)N[C@@H](CCC(=O)O)C(=O)N1CCC[C@H]1C(=O)N3)NC(=O)[C@H](CCCCN)NC(=O)CNC(=O)[C@H](CC(N)=O)NC(=O)[C@H](CCSC)NC2=O [K9Nal] (H-GVIINVKC[1Nal]ISRQCLEPCKKAGMRFGKCMNGKCHCTPK-OH; disulfide 8-28, 14-33, 18-35)
IC50 [1, 3]: 1.07 nM
IC50 [2, 4]: 1.22 nM

CC[C@H](C)[C@@H]1NC(=O)[C@H](CCCCN)NC(=O)[C@@H](NC(=O)[C@H](CCCCN)NC(=O)[C@@H](NC(=O)[C@H](CC(N)=O)NC(=O)[C@@H](NC(=O)[C@@H](NC(=O)[C@@H](NC(=O)CN)C(C)C)[C@@H](C)CC)[C@@H](C)CC)C(C)C)CSSC[C@@H]2NC(=O)[C@H](CCCCN)NC(=O)CNC(=O)[C@H](Cc3ccccc3)NC(=O)[C@H](CCCNC(=N)N)NC(=O)[C@H](CCSC)NC(=O)CNC(=O)[C@H](C)NC(=O)[C@H](CCCCN)NC(=O)[C@H](CCCCN)NC(=O)[C@@H]3CSSC[C@@H](C(=O)N[C@H](C(=O)N[C@@H](CCCNC(=N)N)C(=O)N[C@@H](CCCCN)C(=O)O)[C@@H](C)O)NC(=O)[C@H](Cc4c[nH]cn4)NC(=O)[C@H](CSSC[C@H](NC(=O)[C@H](CCC(N)=O)NC(=O)[C@H](CCCNC(=N)N)NC(=O)[C@H](CO)NC1=O)C(=O)N[C@@H](CC(C)C)C(=O)N[C@@H](CCC(=O)O)C(=O)N1CCC[C@H]1C(=O)N3)NC(=O)[C@H](CCCCN)NC(=O)CNC(=O)[C@H](CC(N)=O)NC(=O)[C@H](CCSC)NC2=O [P37R] (H-GVIINVKCKISRQCLEPCKKAGMRFGKCMNGKCHCTRK-OH; disulfide 8-28, 14-33, 18-35)
IC50 [1, 3]: 0.229 nM
IC50 [2, 4]: 0.253 nM

CC[C@H](C)[C@@H]1NC(=O)[C@H](CCCCN)NC(=O)[C@@H](NC(=O)[C@H](CCCCN)NC(=O)[C@@H](NC(=O)[C@H](CC(N)=O)NC(=O)[C@@H](NC(=O)[C@@H](NC(=O)[C@@H](NC(=O)CN)C(C)C)[C@@H](C)CC)[C@@H](C)CC)C(C)C)CSSC[C@@H]2NC(=O)[C@H](CCC(=O)O)NC(=O)CNC(=O)[C@H](Cc3ccccc3)NC(=O)[C@H](CCCNC(=N)N)NC(=O)[C@H](CCSC)NC(=O)CNC(=O)[C@H](C)NC(=O)[C@H](CCCCN)NC(=O)[C@H](CCCCN)NC(=O)[C@@H]3CSSC[C@@H](C(=O)N[C@H](C(=O)N4CCC[C@H]4C(=O)N[C@@H](CCCCN)C(=O)O)[C@@H](C)O)NC(=O)[C@H](Cc4c[nH]cn4)NC(=O)[C@H](CSSC[C@H](NC(=O)[C@H](CCC(N)=O)NC(=O)[C@H](CCCNC(=N)N)NC(=O)[C@H](CO)NC1=O)C(=O)N[C@@H](CC(C)C)C(=O)N[C@@H](CCC(=O)O)C(=O)N1CCC[C@H]1C(=O)N3)NC(=O)[C@H](CCCCN)NC(=O)CNC(=O)[C@H](CC(N)=O)NC(=O)[C@H](CCSC)NC2=O [K27E] (H-GVIINVKCKISRQCLEPCKKAGMRFGECMNGKCHCTPK-OH; disulfide 8-28, 14-33, 18-35)
IC50 [1, 3]: 5.55 nM
IC50 [2, 4]: 7.14 nM

GVIINVKCKISRQCLAPCKKAGMRFGKCMNGKCHCTPK [Ala-16 (SEQ ID No: 1413)]
IC50 ([1]; read-out: Average IC50 IL-2): 0.101 nM
IC50 ([2]; read-out: Average IC50 IFNg): 0.101 nM
